Measurements from ChEMBL document CHEMBL1201862, “PubChem BioAssay data set” (2004).
The source made the active and inactive calls.

What was measured:
[1] = Luminescence-based cell-based high throughput dose response assay to identify activators of the DAF-12 from the parasite S. stercoralis (ssDAF-12).; format: functional
[2] = target: T1, Oxysterols receptor LXR-beta (Homo sapiens, UniProt P55055); experiment: LXR agonists, Gal4 luciferase reporter, dose response, counter-screen for ssDAF-12 agonist project, cell-based, luminescence, HEK293, S. stercoralis campaign (AID 720737); format: functional; conditions: read-out: IC50 (the source's name)
T1 sequence (P55055 whole entry): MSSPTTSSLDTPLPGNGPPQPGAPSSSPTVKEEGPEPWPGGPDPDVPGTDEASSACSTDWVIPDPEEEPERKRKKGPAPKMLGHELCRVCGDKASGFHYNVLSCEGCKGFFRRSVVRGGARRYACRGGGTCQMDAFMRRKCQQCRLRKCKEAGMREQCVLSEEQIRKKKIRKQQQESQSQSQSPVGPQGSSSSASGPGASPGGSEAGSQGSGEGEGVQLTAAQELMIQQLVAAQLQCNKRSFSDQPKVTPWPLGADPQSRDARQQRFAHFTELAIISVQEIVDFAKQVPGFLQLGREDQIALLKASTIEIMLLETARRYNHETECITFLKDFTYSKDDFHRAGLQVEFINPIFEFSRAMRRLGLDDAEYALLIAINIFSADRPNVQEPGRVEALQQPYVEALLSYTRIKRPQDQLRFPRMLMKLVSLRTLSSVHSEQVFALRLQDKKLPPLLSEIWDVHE

[3] = target: T2, Low molecular weight phosphotyrosine protein phosphatase (Homo sapiens, UniProt P24666); experiment: LMPTP phosphatase inhibitors, dose response, biochemical, OMFP substrate, fluorescence intensity, set 2 (AID 743307); format: functional
T2 sequence (P24666 whole entry): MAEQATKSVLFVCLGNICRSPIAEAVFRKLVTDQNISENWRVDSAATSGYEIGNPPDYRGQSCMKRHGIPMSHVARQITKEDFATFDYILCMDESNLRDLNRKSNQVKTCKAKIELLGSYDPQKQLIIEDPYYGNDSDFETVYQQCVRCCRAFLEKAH

[4] = target: T2, Low molecular weight phosphotyrosine protein phosphatase; experiment: LMPTP phosphatase inhibitors, colorimetric pNPP readout, dose response, orthogonal assay, biochemical, absorbance, pNPP substrate, LMPTP-A isoform, set 2 (AID 743308); format: functional
[5] = Shn3 3'UTR reporter inhibitors, dose response, cell-based, Clone20 osteoblasts, firefly luciferase, cherry-picked (AID 624132); format: functional;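 further: firefly luciferase luminescence from reporter carrying the Shn3 3'UTR in osteoblasts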
[6] = HepG2 cell cytotoxicity, dose response, cytotoxicity control for Shn3 inhibitor project, CellTiter-Glo, cherry-picked (AID 624134); format: functional, cell-based
[7] = control 3'UTR Renilla luciferase suppression, dose response, counter-screen for Shn3 inhibitor project, cell-based, Clone20-Shn3RL, cherry-picked (AID 624133); format: functional
[8] = target: COUP transcription factor 2 (Homo sapiens, UniProt P24468); experiment: Luminescence-based cell-based high throughput dose response assay to identify inhibitors of COUP-TFII (NR2F2).; format: functional;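 further: HEK293 cells transiently cotransfected with COUP-TFII expression vector and reporter; luciferase reporter luminescence driven by COUP-TFII from the pX2-168 reporter plasmid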
COUP transcription factor 2, sequence (P24468 whole entry): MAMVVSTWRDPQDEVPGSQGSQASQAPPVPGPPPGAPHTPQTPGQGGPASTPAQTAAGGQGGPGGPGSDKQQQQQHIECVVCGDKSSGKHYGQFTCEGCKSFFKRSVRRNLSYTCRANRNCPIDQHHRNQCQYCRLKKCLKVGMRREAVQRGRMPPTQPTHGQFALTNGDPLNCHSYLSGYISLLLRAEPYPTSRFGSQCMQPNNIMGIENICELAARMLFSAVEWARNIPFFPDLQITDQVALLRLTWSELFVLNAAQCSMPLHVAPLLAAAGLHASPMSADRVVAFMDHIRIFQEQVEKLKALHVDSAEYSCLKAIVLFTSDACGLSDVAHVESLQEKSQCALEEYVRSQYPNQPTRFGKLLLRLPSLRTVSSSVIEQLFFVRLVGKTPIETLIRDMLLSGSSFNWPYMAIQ

Paired box protein Pax-8 = Paired box protein Pax-8 (Homo sapiens, UniProt Q06710); experiment: inhibitors of PAX8-driven TPO luciferase reporter, dose response, RMG-I cells, cherry-pick (AID 687027); format: functional, cell-based;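 further: luciferase reporter driven by Pax8 target thyroperoxidase promoter measured by SteadyGlo luminescence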
Paired box protein Pax-8, sequence (Q06710 whole entry): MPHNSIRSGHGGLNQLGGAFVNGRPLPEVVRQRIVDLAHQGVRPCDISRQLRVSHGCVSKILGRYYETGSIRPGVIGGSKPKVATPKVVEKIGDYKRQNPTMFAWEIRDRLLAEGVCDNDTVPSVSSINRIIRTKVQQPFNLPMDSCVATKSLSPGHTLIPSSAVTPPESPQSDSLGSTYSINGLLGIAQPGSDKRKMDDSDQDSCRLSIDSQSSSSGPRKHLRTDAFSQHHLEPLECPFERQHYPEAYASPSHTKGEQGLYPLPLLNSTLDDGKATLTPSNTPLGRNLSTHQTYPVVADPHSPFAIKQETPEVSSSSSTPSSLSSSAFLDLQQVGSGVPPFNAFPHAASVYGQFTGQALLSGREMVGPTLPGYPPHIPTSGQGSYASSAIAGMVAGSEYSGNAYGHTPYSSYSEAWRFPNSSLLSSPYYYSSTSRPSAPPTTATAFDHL

[9] = cytotoxicity in COV362 ovarian cancer cells, dose response, cytotoxicity control for PAX8 inhibitor project, cell-based, plate reader, dry powder, SA12 (AID 743144); format: functional
[10] = IOSE-T80 ovarian epithelial cell cytotoxicity, dose response, cytotoxicity control for PAX8 inhibitor project, plate reader, dry powder samples (AID 743045); format: functional, cell-based
[11] = A2780 ovarian cancer cell cytotoxicity, dose response, cytotoxicity control, plate reader, dry powder samples (AID 743046); format: functional, cell-based
[12] = NIH:OVCAR-3 ovarian cancer cell cytotoxicity, dose response, PAX8 inhibitor project, plate reader, dry powder samples (AID 743044); format: functional, cell-based
[13] = IGROV1 ovarian cancer cell cytotoxicity, dose response, PAX8 inhibitor project, plate reader, dry powder samples (AID 743043); format: functional, cell-based; conditions: IGROV-1
[14] = cytotoxicity in OVCAR4 cells, dose response, cytotoxicity control for PAX8 inhibitor project, cell-based, plate reader, dry powder, SA11 (AID 743150); format: functional; conditions: OVCAR-4
[15] = cytotoxicity in COV434 cells, dose response, cytotoxicity control for PAX8 inhibitor project, cell-based, plate reader, dry powder, SA7 (AID 743145); format: functional
[16] = cytotoxicity in OV-90 ovarian cancer cells, dose response, PAX8 inhibitor project, cell-based, plate reader, dry powder, SA8 (AID 743149); format: functional
[17] = cytotoxicity dependent on PAX8, dose response, cell-based, plate reader, dry powder (AID 743049); format: functional
[18] = HepG2 cell cytotoxicity, dose response, cytotoxicity control, plate reader, dry powder, set 6 (AID 743311); format: functional, cell-based
[19] = A549 cell cytotoxicity, dose response, cytotoxicity control, plate reader, dry powder, set 6 (AID 743312); format: functional, cell-based
[20] = NIH/3T3 fibroblast cytotoxicity, dose response, cytotoxicity control, cell-based, plate reader, dry powder, set 2 (AID 652280); format: functional; conditions: NIH3T3
[21] = Concentration-dependent survival of SW480 colon cancer line, luminescence detection with CellTiter-Glo, half-maximal inhibitory concentration (AID 1117338); format: functional
[22] = RKO cell viability reduction, dose response, CellTiter-Glo luminescence (AID 1117322); format: functional
[23] = cytotoxicity toward HCT116 cells – cell-based, CellTiter-Glo luminescence, IC50, dose response (AID 1117332); format: functional; conditions: HCT-116
[24] = SNU-C1 cell viability reduction, dose response, CellTiter-Glo luminescence (AID 1117323); format: functional, cell-based
[25] = cytotoxicity toward Colo320 cells – cell-based, CellTiter-Glo luminescence, IC50, dose response (AID 1117334); format: functional; conditions: COLO 320
[26] = cytotoxicity toward HT-29 cells – cell-based, CellTiter-Glo luminescence, IC50, dose response (AID 1117330); format: functional
[27] = CellTiter-Glo luminescent dose response of DLD-1 viability loss (AID 1117352); format: functional
[28] = HCT116 cell viability decrease, GSK3B pretreatment – CellTiter-Glo, IC50, dose response (AID 1117339); format: functional; conditions: HCT-116
[29] = A Cell-Based Confirmatory Screen for Compounds that Inhibit VEEV, TC-83 (8).; format: functional
[30] = A Cell-Based Confirmatory Screen for Compounds that Inhibit VEEV, TC-83 (7).; format: functional
[31] = A549 cell cytotoxicity, dose response, cytotoxicity control, 24 h, CellTiter-Glo luminescence, cherry-picks (AID 1053115); format: functional, cell-based; conditions: A549, 24 h
[32] = antifungal activity, alamar blue, dry powder, counter-screen for C. neoformans cell wall antifungals, dose response (AID 743128); format: functional, organism-based

Cc1ccc([N+](=O)[O-])c2c1C(N1CC(C)OC(C)C1)C(C)(C)O2 (stereo not drawn)
IC50 [1]: > 67.6 µM (inactive) | EC50 [2]: > 67.6 µM (inactive)

CN(C)CCNc1nc(-c2ccccc2)nc2ccccc12
IC50 [3]: 58.1 µM (inactive) | IC50 [4]: > 80 µM (inactive)

Cn1c(=O)c2nc(CCCCCCCCc3nc4ccccc4[nH]3)[nH]c2n(C)c1=O
AC50 [5]: 3.98 µM (active) | AC50 [6]: 3.88 µM (active) | AC50 [7]: 2.89 µM (active) | IC50 [8]: 7.5 µM (active)

O=C(CCCN1C(=O)/C(=C\c2cccc(Br)c2)SC1=S)Nc1cccnc1
AC50 (Paired box protein Pax-8): 7.56 µM (active) | AC50 [9]: 30.3 µM (active) | AC50 [10]: 24.8 µM (active) | AC50 [11]: 17.9 µM (active) | AC50 [12]: 12 µM (active) | AC50 [13]: 12.5 µM (active) | AC50 [14]: 30.3 µM (active) | AC50 [15]: 31.6 µM (active) | AC50 [16]: 25.7 µM (active) | AC50 [17]: 12.1 µM (active)

Sc1nc2cccc(Cl)c2n1CCOc1ccccc1
AC50 [18]: > 52 µM (inactive) | AC50 [19]: 20.9 µM (active)

CN(C)CC#Cc1cccc(-c2nc(C(=O)Nc3ccc(-c4ccccc4)cc3)cc3c2[C@H](CCO)N([S+]([O-])C(C)(C)C)C3)c1 (stereo partly drawn)
AC50 [20]: 9.5 µM (active)

COC(=O)CCCCC(CCSS/C(CCO)=C(\C)N(C=O)Cc1cnc(C)nc1N)SC(C)=O (stereo not drawn)
IC50 [21]: > 20 µM (inactive) | IC50 [22]: > 20 µM (inactive) | IC50 [23]: > 20 µM (inactive) | IC50 [24]: > 20 µM (inactive) | IC50 [25]: > 20 µM (inactive) | IC50 [26]: > 20 µM (inactive) | IC50 [27]: > 20 µM (inactive) | IC50 [28]: > 20 µM (inactive)

CN1CCN(C)/C(=N/c2ccc([N+](=O)[O-])cc2C(=O)Nc2ccccc2)C1
IC50 [29]: < 0.073 µM (active) | IC50 [30]: < 0.04 µM (active)

CN1c2ccc(-c3ccc(C#N)cc3)cc2[C@@H]2[C@@H](CCN2C(=O)C2CCCCC2)[C@H]1CO
AC50 [31]: 47.5 µM (active)

CCOC(=O)c1c(-c2ccc(F)cc2)csc1NC(=O)CN1CCN(CC)CC1
AC50 [32]: 42.5 µM (active)
